Format in all cases: physicochemical
Data set [1] is described as follows: Static storage at elevated temperature and relative humidity, re-analysis by XRPD. The procedure:
In some examples below, X-Ray Powder Diffraction analysis was carried out on a Bruker D8 X-ray Powder Diffractometer (XRPD) instrument using Cu Kα radiation (40 kV, 40 mA) and a θ-2θ goniometer fitted with a Ge monochromator. The incident beam passes through a 2.0 mm divergence slit followed by a 0.2 mm anti-scatter slit and knife edge. The diffracted beam passes through an 8.0 mm receiving slit with 2.5° Soller slits followed by the Lynxeye Detector. The software used for data collection and analysis was Diffrac Plus XRD Commander and Diffrac Plus EVA respectively. Samples were run under ambient conditions as flat plate specimens using powder as received. The sample was prepared on a polished, zero-background (510) silicon wafer by gently pressing onto the flat surface or packed into a cut cavity. The sample was rotated in its own plane. The general experimental procedures for XRPD were: (1) angular range: 2 to 42° 2θ; (2) step size: 0.05° 2θ; and collection time: 0.5 s/step (total collection time: 6.40 min). The extended data collection experimental procedures for XRPD were: (1) angular range: 3 to 30° 2θ; (2) step size: 0.05° 2θ; and collection time: 4 s/step (total collection time: 38.00 min).
In some examples below, X-Ray Powder Diffraction analysis was carried out on a PANalytical Empyrean X-ray Powder Diffractometer (XRPD) instrument using Cu Kα radiation (45 kV, 40 mA) in transmission geometry. A 0.5° slit, 4 mm mask and 0.04 rad Soller slits with a focusing mirror were used on the incident beam. A PIXcel^3D detector, placed on the diffracted beam, was fitted with a receiving slit and 0.04 rad Soller slits. The software used for data collection was X'Pert Data Collector using X'Pert Operator Interface. The data were analysed and presented using Diffrac Plus EVA or HighScore Plus. Samples were prepared and analysed in either a metal or Millipore 96 well-plate in transmission mode. X-ray transparent film was used between the metal sheets on the metal well-plate and powders (approximately 1-2 mg) were used as received. […]

Data set [2] can be described thus: Gravimetric vapour sorption (GVS). Here is the method: Gravimetric Vapour sorption (GVS) was carried out using a SMS DVS Intrinsic moisture sorption analyser, controlled by DVS Intrinsic Control software. The sample temperature was maintained at 25° C. by the instrument controls. The humidity was controlled by mixing streams of dry and wet nitrogen, with a total flow rate of 200 ml/min. The relative humidity was measured by a calibrated Rotronic probe (dynamic range of 1.0-100% RH), located near the sample. The weight change, (mass relaxation) of the sample as a function of % RH was constantly monitored by a microbalance (accuracy ±0.005 mg).
Typically, 5-30 mg of sample was placed in a tared mesh stainless steel basket under ambient conditions. The sample was loaded and unloaded at 40% RH and 25° C. (typical room conditions). A moisture sorption isotherm was performed as outlined below (2 scans per complete cycle). The standard isotherm was performed at 25° C. at 10% RH intervals over a 0-90% RH range. Typically, a double cycle (4 scans) was carried out.
The sample was recovered after completion of the isotherm and re-analysed by XRPD.

Data set [3] can be described thus: Maturation in solvents (20 vol), dissolution observed. Conditions: matured RT-50° C. for 3 days. The procedure: The methanesulfonic acid salt (20 mg) was treated with solvent (20 vol) and matured (RT −50° C., 4 h) for 3 days. Samples were then analyzed by XRPD. Attempts in improve the crystallinity of the scaled up methanesulfonic acid salt was undertaken by subjecting the material to maturation for 72 h in a variety of solvents. A slight improvement in crystallinity was observed from maturing in 2-propanol, ethyl acetate, and tert-butyl methyl ether.

Consider 3 compounds from patent US12404272B2, “Process for making a PD-1/PD-L1 inhibitor and salts and crystalline forms thereof” (Incyte Corporation, priority 2020, dated 2025).

Each structure is given as a SMILES string. Structures can show the parent of a compound that is named as a salt.

Take `Cc1c(Nc2nc(C(F)F)nc3cc(CN4CC[C@@H](O)C4)cnc23)cccc1-c1cccc(-c2nc3cc(CN4CCC(C(=O)O)CC4)cc(C#N)c3o2)c1C` [(R)-1-((7-cyano-2-(3′-((2-(difluoromethyl)-7-((3-hydroxypyrrolidin-1-yl)methyl)pyrido[3,2-d]pyrimidin-4-yl)amino)-2,2′-dimethyl-[1,1′-biphenyl]-3-yl)benzo[d]oxazol-5-yl)methyl)piperidine-4-carboxylic acid]: the “XRPD analysis following static storage” value in data set [1] (25° C./97% RH for 5 days) is “remained unchanged, however a loss in crystallinity was observed”; in data set [1] (40° C./75% RH for 5 days), “remained unchanged, however a loss in crystallinity was observed”. The hygroscopicity entry in data set [2] (GVS, 0-90% RH) is recorded as “very hygroscopic”. In addition, the “XRPD analysis following the GVS experiment” value in data set [2] (after GVS isotherm) is recorded as “remained unchanged”. For the same compound, the weight uptake in data set [2] (between 0-90% RH, 25° C.) is listed as 19.5 % w/w.
For the compound `Cc1c(Nc2nc(C(F)F)nc3cc(CN4CC[C@@H](O)C4)cnc23)cccc1-c1cccc(-c2nc3cc(CN4CCC(C(=O)O)CC4)cc(C#N)c3o2)c1C` [Free form Form I, (R)-1-((7-cyano-2-(3′-((2-(difluoromethyl)-7-((3-hydroxypyrrolidin-1-yl)methyl)pyrido[3,2-d]pyrimidin-4-yl)amino)-2,2′-dimethyl-[1,1′-biphenyl]-3-yl)benzo[d]oxazol-5-yl)methyl)piperidine-4-carboxylic acid], the “XRPD following static storage” value in data set [1] (7 days at elevated temperature and relative humidity conditions) is listed as “remained unchanged”.
Take `Cc1c(Nc2nc(C(F)F)nc3cc(CN4CC[C@@H](O)C4)cnc23)cccc1-c1cccc(-c2nc3cc(CN4CCC(C(=O)O)CC4)cc(C#N)c3o2)c1C` [methanesulfonic acid salt, (R)-1-((7-cyano-2-(3′-((2-(difluoromethyl)-7-((3-hydroxypyrrolidin-1-yl)methyl)pyrido[3,2-d]pyrimidin-4-yl)amino)-2,2′-dimethyl-[1,1′-biphenyl]-3-yl)benzo[d]oxazol-5-yl)methyl)piperidine-4-carboxylic acid]: the dissolution in solvent entry in data set [3] (ethanol) and in data set [3] (water) was “complete dissolution” throughout.
